Assay results: patent publication US20210380929A1, “METHODS, APPARATUS AND KITS FOR BACTERIAL CELL LYSIS” (TECHNISCHE UNIVERSITÄT WIEN, priority 2018, published 2021)

Test system: Enterococcus faecalis type strain NCTC 775
Type: cell-based

Compound | 23S rRNA gene copies in 2.5 μl of the DNA extracts | cell lysis efficiency with varying IL concentration
CC(=O)O.CCn1cc[n+](C)c1 [[C2mim]OAc, 1-Ethyl-3-methylimidazolium acetate] | ~6.48±0.02 | almost steadily decreased with its respective concentration
CCCCCC(=O)[O-].C[N+](C)(C)CCO [[Cho]Hex, Choline hexanoate] | ~6.49±0.11 | slightly improved towards a concentration of 50% (w/v), only decreasing with lower concentrations of 30% (w/v) and 10% (w/v)
